Test results: patent US10683282B2, “Multi-substituted pyrimidine derivatives with excellent kinase inhibitory activities” (KOREA INSTITUTE OF SCIENCE AND TECHNOLOGY, priority 2018, dated 2020)
Like-named read-outs stand apart in the source and are kept apart here.

Columns and labels:
CYP 1A2 = CYP 1A2 (Homo sapiens, UniProt P05177); assay: CYP450 assay (luminescence); format: in vitro ADME; details: compound at 10 μM
Procedure: (§1) Compound 5 and a positive control stock solution were diluted with water to prepare a 40 μM working solution, and a solution containing an enzyme and a substrate was prepared using water and buffer. Compound 5/control/positive control and the solution were each dispensed on a 96-well and preincubated at 37° C. for 10 minutes. The resulting substance was reacted with NADPH for 20 minutes at 37° C. and a detection reagent was added to terminate the reaction. After stabilization at room temperature for 20 minutes, a luminescence signal was measured.

CYP 3A4 = CYP 3A4 (Homo sapiens, UniProt P08684); assay: CYP450 assay (luminescence); format: in vitro ADME; details: compound at 10 μM, read-out: inhibitory activity against human CYP 3A4
Procedure: as §1

ACK1 = molecular target: T1, ACK1 (Homo sapiens, UniProt Q07912); assay: Kinase screening, HotSpot assay (Reaction Biology); format: biochemical
T1 construct: purchased Reaction Biology Corporation
Procedure: (§2) Kinase screening was performed using a “HotSpot” assay platform method by Reaction Biology Corporation. The reaction buffer used herein contained 20 mM HEPES (pH 7.5), 10 mM MgCl2, 1 mM EGTA, 0.02% Brij35, 0.02 mg/mL BSA, 0.1 mM Na3VO4, 2 mM DTT and 1% DMSO. The required cofactors were added in accordance with the kinase reaction. Freshly made buffer and cofactors were added at a concentration of 20 μM during the selected enzyme reaction. A solution of the test compound in dimethylsulfoxide (DMSO) was added at a suitable concentration to this solution. In order to initiate reaction, […] (specific activity […]) was added and incubated at room temperature for 2 hours. The test compound was screened at a starting concentration of 20 μM in a 10-dose IC50 mode. IC50 of Staurosporine used as a control drug was obtained at a starting concentration of 20 μM in a 10-dose IC50 mode.

ARK5/NUAK1 [1] = molecular target: T2, ARK5/NUAK1 (Homo sapiens, UniProt O60285); assay: Kinase screening, HotSpot assay (Reaction Biology); format: biochemical
T2 construct: purchased Reaction Biology Corporation
T2 sequence (O60285 1-661): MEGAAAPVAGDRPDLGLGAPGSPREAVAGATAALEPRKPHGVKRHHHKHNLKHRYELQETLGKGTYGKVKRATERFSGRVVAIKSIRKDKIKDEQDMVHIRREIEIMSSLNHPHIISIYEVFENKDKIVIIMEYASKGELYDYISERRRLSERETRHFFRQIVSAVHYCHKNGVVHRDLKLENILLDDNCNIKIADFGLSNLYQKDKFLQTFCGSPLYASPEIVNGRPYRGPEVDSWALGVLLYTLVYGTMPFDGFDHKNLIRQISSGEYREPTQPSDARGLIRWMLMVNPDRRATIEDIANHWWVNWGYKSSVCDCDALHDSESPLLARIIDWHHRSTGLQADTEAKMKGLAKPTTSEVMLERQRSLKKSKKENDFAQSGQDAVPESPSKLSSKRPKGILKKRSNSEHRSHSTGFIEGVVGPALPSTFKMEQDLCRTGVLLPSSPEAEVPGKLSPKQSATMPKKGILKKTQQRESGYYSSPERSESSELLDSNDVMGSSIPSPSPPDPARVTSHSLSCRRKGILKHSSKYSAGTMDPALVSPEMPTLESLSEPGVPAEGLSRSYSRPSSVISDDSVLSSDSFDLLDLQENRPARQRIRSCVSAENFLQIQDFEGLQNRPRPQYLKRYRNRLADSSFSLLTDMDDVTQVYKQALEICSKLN
Procedure: as §2

JAK1 = molecular target: T3, JAK1 (Homo sapiens, UniProt P23458); assay: Kinase screening, HotSpot assay (Reaction Biology); format: biochemical
T3 construct: purchased Reaction Biology Corporation
Procedure: as §2

JAK2 = molecular target: T4, JAK2 (Homo sapiens, UniProt O60674); assay: Kinase screening, HotSpot assay (Reaction Biology); format: biochemical
T4 construct: purchased Reaction Biology Corporation
Procedure: as §2

JAK2(V617F) = molecular target: T5, JAK2(V617F) (Homo sapiens, UniProt O60674, V617F); assay: Kinase screening, HotSpot assay (Reaction Biology); format: biochemical
T5 construct: purchased Reaction Biology Corporation
Procedure: as §2

FLT3 = molecular target: T6, FLT3 (Homo sapiens, UniProt P36888); assay: Kinase screening, HotSpot assay (Reaction Biology); format: biochemical
T6 construct: purchased Reaction Biology Corporation
T6 sequence (P36888 27-993): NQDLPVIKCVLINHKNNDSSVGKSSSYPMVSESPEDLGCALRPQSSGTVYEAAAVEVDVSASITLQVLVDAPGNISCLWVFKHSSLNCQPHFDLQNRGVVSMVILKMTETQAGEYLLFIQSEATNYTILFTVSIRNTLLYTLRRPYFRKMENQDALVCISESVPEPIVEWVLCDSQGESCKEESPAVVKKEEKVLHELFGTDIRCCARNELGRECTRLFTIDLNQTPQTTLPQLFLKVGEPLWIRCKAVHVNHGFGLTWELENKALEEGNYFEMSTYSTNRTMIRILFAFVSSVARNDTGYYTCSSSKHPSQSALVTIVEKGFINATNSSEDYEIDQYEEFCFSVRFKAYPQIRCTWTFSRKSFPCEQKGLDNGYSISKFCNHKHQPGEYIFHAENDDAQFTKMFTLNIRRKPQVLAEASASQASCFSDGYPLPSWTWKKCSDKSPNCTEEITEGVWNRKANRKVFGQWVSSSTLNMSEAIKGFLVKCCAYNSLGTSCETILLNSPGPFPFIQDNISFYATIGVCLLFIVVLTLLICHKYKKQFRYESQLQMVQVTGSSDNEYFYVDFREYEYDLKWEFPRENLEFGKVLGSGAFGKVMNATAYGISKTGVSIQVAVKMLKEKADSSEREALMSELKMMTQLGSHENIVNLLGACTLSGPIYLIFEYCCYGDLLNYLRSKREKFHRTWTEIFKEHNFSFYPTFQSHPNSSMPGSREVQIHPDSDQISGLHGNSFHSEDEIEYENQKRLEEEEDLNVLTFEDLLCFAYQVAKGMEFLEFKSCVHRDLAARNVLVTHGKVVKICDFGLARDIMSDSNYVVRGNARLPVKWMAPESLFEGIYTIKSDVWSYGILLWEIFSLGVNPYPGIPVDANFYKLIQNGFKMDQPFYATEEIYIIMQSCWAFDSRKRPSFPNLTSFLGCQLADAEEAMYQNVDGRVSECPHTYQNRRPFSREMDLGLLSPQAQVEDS
Procedure: Kinase screening was performed using a “HotSpot” assay platform method by Reaction Biology Corporation. The reaction buffer used herein contained 20 mM HEPES (pH 7.5), 10 mM MgCl2, 1 mM EGTA, 0.02% Brij35, 0.02 mg/mL BSA, 0.1 mM Na3VO4, 2 mM DTT and 1% DMSO. The required cofactors were added in accordance with the kinase reaction. Freshly made buffer and cofactors were added at a concentration of 20 μM during the selected enzyme reaction. A solution of the test compound in dimethylsulfoxide (DMSO) was added at a suitable concentration to this solution.

Ba/F3 FLT3-ITD = Ba/F3 FLT3-ITD growth inhibition; format: cell-based; details: Ba/F3 FLT3-ITD cells
Ba/F3 parental = Ba/F3 parental growth inhibition; format: cell-based; details: Mus musculus, BaF3; Ba/F3 parental cells
ARK5/NUAK1 [2] = molecular target: T2, ARK5/NUAK1; details: comparative values quoted in text, source not stated; read-out: ARK5/NUAK1 IC50 of comparative compounds; cited from earlier work
AXL = molecular target: T7, AXL (Homo sapiens, UniProt P30530); assay: Kinase screening, HotSpot assay (Reaction Biology); format: biochemical
T7 construct: purchased Reaction Biology Corporation
Procedure: as §2

AXL(R499C) = molecular target: T8, AXL(R499C) (Homo sapiens, UniProt P30530, R499C); assay: Kinase screening, HotSpot assay (Reaction Biology); format: biochemical
T8 construct: purchased Reaction Biology Corporation
Procedure: as §2

JAK3 = molecular target: T9, JAK3 (Homo sapiens, UniProt P52333); assay: Kinase screening, HotSpot assay (Reaction Biology); format: biochemical
T9 construct: purchased Reaction Biology Corporation
Procedure: as §2

LRRK2 = molecular target: T10, LRRK2 (Homo sapiens, UniProt Q5S007); assay: Kinase screening, HotSpot assay (Reaction Biology); format: biochemical
T10 construct: purchased Reaction Biology Corporation
Procedure: as §2

PKCmu/PRKD1 = molecular target: T11, PKCmu/PRKD1 (Homo sapiens, UniProt Q15139); assay: Kinase screening, HotSpot assay (Reaction Biology); format: biochemical
T11 construct: purchased Reaction Biology Corporation
Procedure: as §2

RET = molecular target: T12, RET (Homo sapiens, UniProt P07949); assay: Kinase screening, HotSpot assay (Reaction Biology); format: biochemical
T12 construct: purchased Reaction Biology Corporation
Procedure: as §2

SIK2 = molecular target: T13, SIK2 (Homo sapiens, UniProt Q9H0K1); assay: Kinase screening, HotSpot assay (Reaction Biology); format: biochemical
T13 construct: purchased Reaction Biology Corporation
Procedure: as §2

TYRO3/SKY = molecular target: T14, TYRO3/SKY (Homo sapiens, UniProt Q06418); assay: Kinase screening, HotSpot assay (Reaction Biology); format: biochemical
T14 construct: purchased Reaction Biology Corporation
Procedure: as §2

c-MER = molecular target: T15, c-MER (Homo sapiens, UniProt Q12866); assay: Kinase screening, HotSpot assay (Reaction Biology); format: biochemical
T15 construct: purchased Reaction Biology Corporation
Procedure: as §2

mLK1/MAP3K9 = molecular target: T16, mLK1/MAP3K9 (Homo sapiens, UniProt P80192); assay: Kinase screening, HotSpot assay (Reaction Biology); format: biochemical
T16 construct: purchased Reaction Biology Corporation
Procedure: as §2

MV-4-11 cells = assay: MV-4-11 cell screening (viable cells by ATP luminescence); format: cell-based; details: Homo sapiens, MV4-11, 72 hours incubation, read-out: MV-4-11 cell line (IC50)
Procedure: A control compound was a 1 mM Staurosporine solution in DMSO.
25 μL of culture media containing 2,000 MV-4-11 cells were added and incubated at 37° C. in the presence of 5% CO2 for 72 hours. Then, the culture solution was mixed in an orbital shaker for 2 minutes and incubated at room temperature for 15 minutes. […] IC50 values are measured using the GraphPad Prism 4 program in accordance with the sigmoidal dose-response equation.

K-562 cell line = K-562 cell line activity; format: cell-based; details: Homo sapiens, K562
CYP 2C19 = CYP 2C19 (Homo sapiens, UniProt P33261); assay: CYP450 assay (luminescence); format: in vitro ADME; details: control compound at 100 μM, read-out: inhibitory activity against human CYP 2C19
Procedure: The resulting substance was reacted with NADPH for 20 minutes at 37° C. and a detection reagent was added to terminate the reaction. After stabilization at room temperature for 20 minutes, a luminescence signal was measured.

T5 sequence (O60674 whole entry V617F): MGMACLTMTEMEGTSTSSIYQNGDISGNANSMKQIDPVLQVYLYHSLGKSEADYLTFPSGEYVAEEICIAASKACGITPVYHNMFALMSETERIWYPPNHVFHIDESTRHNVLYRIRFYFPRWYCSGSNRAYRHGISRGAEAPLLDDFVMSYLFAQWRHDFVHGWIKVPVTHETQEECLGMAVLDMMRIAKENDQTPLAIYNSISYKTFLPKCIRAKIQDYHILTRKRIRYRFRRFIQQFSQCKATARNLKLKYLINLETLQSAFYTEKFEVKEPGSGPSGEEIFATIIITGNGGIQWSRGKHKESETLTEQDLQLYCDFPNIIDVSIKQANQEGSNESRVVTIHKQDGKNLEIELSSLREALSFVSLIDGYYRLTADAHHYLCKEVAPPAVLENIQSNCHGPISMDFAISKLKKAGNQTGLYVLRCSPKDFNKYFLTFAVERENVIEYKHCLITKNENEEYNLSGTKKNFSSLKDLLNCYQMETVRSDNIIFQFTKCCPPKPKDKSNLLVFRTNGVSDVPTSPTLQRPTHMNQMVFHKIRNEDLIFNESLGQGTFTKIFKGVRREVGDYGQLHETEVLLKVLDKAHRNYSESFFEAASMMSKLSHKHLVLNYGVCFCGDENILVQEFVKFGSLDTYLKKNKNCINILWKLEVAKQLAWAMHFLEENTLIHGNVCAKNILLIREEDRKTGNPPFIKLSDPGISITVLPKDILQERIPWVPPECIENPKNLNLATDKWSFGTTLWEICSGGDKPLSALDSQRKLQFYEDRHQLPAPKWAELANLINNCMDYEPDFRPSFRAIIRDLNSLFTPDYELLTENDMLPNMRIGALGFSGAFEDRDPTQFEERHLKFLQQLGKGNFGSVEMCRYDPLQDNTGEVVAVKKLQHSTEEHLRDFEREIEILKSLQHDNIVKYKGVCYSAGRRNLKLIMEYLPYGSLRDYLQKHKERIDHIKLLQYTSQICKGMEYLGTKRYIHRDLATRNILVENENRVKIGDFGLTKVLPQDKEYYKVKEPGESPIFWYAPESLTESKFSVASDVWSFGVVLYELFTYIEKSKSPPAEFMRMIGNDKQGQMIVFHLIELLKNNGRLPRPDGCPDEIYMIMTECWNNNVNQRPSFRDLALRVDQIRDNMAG
T4 sequence (O60674 whole entry): as the sequence (O60674 whole entry V617F) above, with F617V counted along it
T3 sequence (P23458 whole entry): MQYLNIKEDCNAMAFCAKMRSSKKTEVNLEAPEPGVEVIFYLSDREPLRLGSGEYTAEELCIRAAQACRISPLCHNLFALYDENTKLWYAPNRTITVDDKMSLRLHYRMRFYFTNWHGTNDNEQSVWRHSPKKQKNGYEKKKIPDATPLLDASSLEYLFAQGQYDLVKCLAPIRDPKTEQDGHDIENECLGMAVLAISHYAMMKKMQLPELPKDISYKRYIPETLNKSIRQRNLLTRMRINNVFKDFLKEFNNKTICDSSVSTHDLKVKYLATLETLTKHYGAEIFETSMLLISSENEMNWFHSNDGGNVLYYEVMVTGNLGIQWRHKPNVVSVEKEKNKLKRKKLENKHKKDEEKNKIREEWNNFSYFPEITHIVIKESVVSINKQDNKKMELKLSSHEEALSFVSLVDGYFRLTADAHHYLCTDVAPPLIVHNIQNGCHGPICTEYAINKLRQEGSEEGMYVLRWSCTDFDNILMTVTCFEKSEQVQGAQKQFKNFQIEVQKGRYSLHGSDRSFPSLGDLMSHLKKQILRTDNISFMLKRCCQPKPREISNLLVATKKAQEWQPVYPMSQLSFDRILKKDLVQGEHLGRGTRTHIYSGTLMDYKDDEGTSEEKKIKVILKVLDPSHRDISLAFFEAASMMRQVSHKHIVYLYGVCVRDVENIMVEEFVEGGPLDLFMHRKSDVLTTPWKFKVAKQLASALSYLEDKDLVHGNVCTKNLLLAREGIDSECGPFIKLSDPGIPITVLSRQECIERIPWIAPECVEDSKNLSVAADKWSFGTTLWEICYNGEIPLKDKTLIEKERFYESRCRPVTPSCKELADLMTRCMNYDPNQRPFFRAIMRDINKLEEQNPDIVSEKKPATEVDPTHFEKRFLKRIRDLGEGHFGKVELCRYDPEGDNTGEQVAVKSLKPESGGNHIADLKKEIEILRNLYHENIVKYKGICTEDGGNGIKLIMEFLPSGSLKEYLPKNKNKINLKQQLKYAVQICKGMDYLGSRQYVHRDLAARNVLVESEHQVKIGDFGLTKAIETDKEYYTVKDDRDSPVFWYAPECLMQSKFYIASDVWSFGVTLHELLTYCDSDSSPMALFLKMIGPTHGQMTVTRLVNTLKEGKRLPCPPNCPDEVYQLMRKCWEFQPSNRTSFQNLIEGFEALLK
T1 sequence (Q07912 whole entry): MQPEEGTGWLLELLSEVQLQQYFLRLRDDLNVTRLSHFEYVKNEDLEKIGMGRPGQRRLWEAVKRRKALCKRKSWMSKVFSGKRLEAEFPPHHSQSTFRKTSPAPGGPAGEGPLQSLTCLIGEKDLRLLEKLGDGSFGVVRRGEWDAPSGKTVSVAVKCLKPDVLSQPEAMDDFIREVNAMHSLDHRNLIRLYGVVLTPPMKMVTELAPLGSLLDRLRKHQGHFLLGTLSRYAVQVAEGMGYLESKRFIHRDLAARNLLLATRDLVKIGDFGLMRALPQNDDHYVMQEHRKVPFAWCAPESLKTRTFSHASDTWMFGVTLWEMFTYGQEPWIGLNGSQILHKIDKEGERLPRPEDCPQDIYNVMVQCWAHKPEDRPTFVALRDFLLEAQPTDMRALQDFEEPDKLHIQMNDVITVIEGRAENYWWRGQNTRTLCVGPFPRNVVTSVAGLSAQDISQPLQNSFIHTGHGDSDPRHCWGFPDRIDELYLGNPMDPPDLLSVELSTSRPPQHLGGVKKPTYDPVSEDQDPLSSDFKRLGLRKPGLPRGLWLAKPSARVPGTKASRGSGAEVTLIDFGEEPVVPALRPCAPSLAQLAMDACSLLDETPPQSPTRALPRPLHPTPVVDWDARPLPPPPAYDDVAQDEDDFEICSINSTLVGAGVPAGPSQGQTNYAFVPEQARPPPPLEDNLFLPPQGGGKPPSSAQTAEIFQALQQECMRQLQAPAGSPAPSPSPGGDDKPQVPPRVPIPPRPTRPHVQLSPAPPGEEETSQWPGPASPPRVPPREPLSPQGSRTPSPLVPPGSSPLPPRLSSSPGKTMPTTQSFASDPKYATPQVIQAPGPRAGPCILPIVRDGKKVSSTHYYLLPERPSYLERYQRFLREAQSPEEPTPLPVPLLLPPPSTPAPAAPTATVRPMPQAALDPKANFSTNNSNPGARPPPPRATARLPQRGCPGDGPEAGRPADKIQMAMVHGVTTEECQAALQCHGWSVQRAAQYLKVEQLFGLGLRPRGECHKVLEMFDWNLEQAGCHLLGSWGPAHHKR
Chain of CYP 2C19 (P33261 whole entry): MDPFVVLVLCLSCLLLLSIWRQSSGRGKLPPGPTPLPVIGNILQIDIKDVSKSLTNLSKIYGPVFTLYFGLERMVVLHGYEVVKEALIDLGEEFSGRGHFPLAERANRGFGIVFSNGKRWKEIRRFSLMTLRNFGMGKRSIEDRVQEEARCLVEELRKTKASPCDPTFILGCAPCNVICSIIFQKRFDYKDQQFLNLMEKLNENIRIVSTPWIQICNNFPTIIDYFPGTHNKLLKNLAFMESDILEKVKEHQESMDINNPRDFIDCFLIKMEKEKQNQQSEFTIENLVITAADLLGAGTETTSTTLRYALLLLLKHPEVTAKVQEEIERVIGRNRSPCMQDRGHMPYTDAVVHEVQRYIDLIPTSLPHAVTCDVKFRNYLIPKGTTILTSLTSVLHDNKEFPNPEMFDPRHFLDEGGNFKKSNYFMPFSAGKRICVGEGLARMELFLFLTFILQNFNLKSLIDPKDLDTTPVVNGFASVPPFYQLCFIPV
T12 sequence (P07949 29-1114): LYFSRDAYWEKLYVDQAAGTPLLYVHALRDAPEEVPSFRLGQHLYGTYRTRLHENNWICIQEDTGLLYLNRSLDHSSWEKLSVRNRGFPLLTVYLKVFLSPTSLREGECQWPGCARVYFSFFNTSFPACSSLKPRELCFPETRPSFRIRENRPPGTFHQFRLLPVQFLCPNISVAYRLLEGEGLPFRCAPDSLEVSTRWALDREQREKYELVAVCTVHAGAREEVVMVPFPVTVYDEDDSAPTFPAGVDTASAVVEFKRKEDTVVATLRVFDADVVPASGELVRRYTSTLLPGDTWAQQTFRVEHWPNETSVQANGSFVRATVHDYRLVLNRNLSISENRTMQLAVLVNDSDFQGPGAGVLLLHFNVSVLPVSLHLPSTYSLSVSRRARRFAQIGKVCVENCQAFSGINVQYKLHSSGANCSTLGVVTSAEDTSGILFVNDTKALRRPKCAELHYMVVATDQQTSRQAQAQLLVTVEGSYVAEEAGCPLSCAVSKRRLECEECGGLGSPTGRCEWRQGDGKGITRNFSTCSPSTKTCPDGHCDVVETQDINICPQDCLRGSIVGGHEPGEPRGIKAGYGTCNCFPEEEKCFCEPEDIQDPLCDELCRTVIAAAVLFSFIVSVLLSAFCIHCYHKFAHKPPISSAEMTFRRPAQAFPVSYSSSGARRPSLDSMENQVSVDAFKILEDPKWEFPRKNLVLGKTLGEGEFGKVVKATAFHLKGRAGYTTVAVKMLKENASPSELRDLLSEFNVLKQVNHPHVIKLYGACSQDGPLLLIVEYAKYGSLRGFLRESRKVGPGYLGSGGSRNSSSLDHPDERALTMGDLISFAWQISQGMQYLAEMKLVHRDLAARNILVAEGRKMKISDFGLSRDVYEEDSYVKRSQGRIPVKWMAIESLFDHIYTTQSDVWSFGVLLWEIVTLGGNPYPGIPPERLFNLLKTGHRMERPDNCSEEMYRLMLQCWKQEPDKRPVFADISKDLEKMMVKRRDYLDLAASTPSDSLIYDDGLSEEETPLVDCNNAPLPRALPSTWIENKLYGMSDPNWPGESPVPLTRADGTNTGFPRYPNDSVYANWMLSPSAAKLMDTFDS

## αα-naphthoflavone [reference compound]
CYP 1A2
  inhibitory activity against human CYP 1A2: 97.7

## CC(=O)N1CCN(c2ccc(OCC3COC(Cn4ccnc4)(c4ccc(Cl)cc4Cl)O3)cc2)CC1 (stereo not shown) [ketoconazole, reference compound]
CYP 3A4
  inhibition at 20 min, 10 µM: 98.7%

## Fc1cnc(Nc2ccc(OCCN3CCCC3)cc2)nc1NCc1ccco1 [Compound 20, 4-(furan-2-yl) methylamino-5-fluoro-2-[4-{2-(pyrrolidin-1-yl)ethoxy}phenylamino]pyrimidine]
ACK1
  IC50: 101 nM
ARK5/NUAK1 [1]
  IC50: 52.3 nM
JAK1
  IC50: 177 nM
JAK2
  IC50: 99.1 nM
JAK2(V617F)
  IC50: 238 nM
FLT3
  IC50: 22 nM
Ba/F3 FLT3-ITD
  GI50: 178 nM
Ba/F3 parental
  GI50: 6670 nM

## Cc1nc(Nc2cnn(C3CCNCC3)c2)nc2c1N(C)C(=O)c1cc3ccccc3cc1N2C [HTH-01-015]
ARK5/NUAK1 [2]
  IC50: 100 nM

## Cc1cnc(Nc2ccc(OCCN3CCCC3)cc2)nc1NCc1ccco1 [Compound 1, 4-(furan-2-yl)methylamino-5-methyl-2-[4-{2-(pyrrolidin-1-yl)ethoxy}phenylamino]pyrimidine]
ACK1
  IC50: 38.8 nM
ARK5/NUAK1 [1]
  IC50: 5.9 nM
AXL
  IC50: 443 nM
AXL(R499C)
  IC50: 207 nM
JAK1
  IC50: 50 nM
JAK2
  IC50: 50.1 nM
JAK2(V617F)
  IC50: 95.2 nM
JAK3
  IC50: 207 nM
LRRK2
  IC50: 113 nM
PKCmu/PRKD1
  IC50: 167 nM
RET
  IC50: 488 nM
SIK2
  IC50: 105 nM
TYRO3/SKY
  IC50: 10700 nM
c-MER
  IC50: 14300 nM
mLK1/MAP3K9
  IC50: 148 nM
FLT3
  IC50: 10.3 nM
MV-4-11 cells
  IC50: 65.9 nM
K-562 cell line
  IC50: 5100 nM
Ba/F3 FLT3-ITD
  GI50: 92 nM
Ba/F3 parental
  GI50: 1790 nM

## CN(C)CCC=C1c2ccccc2CCc2ccccc21 [amitriptyline, reference compound]
CYP 2C19
  inhibition at 20 min, 100 µM: 88%

## FC(F)(F)c1cnc(Nc2ccc(OCCN3CCCC3)cc2)nc1NCc1ccco1 [Compound 21, 4-(furan-2-yl) methylamino-5-trifluoromethyl-2-[4-{2-(pyrrolidin-1-yl)ethoxy}phenylamino]pyrimidine]
Ba/F3 FLT3-ITD
  GI50: 558 nM
Ba/F3 parental
  GI50: 8060 nM
